The test has as its target T1, P2X7 receptor (Homo sapiens, UniProt Q99572).
T1 construct: host or cells: THP-1 cells differentiated with LPS and IFN-γ
T1 sequence (Q99572 1-595): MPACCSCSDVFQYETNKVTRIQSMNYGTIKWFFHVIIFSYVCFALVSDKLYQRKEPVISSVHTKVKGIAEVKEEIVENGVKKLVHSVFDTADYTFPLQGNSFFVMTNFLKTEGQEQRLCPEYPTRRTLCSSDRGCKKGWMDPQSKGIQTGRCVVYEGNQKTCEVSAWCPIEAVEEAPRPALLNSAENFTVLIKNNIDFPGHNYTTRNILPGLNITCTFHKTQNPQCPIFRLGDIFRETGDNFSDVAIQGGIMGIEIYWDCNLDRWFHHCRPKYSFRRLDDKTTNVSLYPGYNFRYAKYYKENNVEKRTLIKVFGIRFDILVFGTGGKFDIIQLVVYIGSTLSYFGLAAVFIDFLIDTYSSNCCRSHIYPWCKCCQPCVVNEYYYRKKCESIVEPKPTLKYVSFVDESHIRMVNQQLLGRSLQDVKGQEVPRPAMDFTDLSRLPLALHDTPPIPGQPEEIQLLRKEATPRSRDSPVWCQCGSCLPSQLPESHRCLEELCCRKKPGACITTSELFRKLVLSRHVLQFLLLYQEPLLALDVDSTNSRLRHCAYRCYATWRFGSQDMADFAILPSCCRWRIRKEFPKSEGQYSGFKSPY
Kind of test: IL-1β release assay in differentiated THP-1 cells stimulated with BzATP (Example 9). Type of test: cell-based. Also on record: inhibition: dose or concentration left out as unconfirmed. To be noted: for inhibition at 0.3 µM: 0.3 μM compound, read-out: IL-1β % Inhib. @ 0.3 μM; for inhibition at 0.3 µM / inhibition at 0.1 µM: differentiated THP-1 cells, BzATP 250 uM; for pIC50: THP-1 cells, BzATP-stimulated IL-1β release, four parameter logistic fit; for inhibition: THP-1, read-out: IL-1β % Inhib.; for inhibition at 0.1 µM: 0.1 μM compound. Summed up:
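THP-1 cells differentiated 16 h with LPS and IFN-γ (100 ng/mL each), re-primed 2 h with LPS, then compound-pretreated 30 min before 250 uM BzATP for 45 min. Supernatant IL-1β quantified by ELISA; background-adjusted percent inhibition fitted to four-parameter logistic for IC50.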

The mark [1] stands for this setting: symbols * to ****, read-out: IL-1β % Inhib. (asterisk symbols: at 0.1 μM).
Setting [2] is: '*' class symbols, read-out: IL-1β % Inhib. (asterisk classes, 0.1 μM).

pIC50: −log10 of the molar value. Where two headings read alike, the source gives them in different places.

In the case of `CC(C)Cc1ccc(C(=O)Nc2cccc3c(=O)n(CCN4CCOCC4)ccc23)cc1` [Compound 1243], the inhibition at 0.3 µM (symbols + to ++++) was 0 to 25%. `COc1ccc(C(=O)Nc2cccc3c(=O)n(Cc4cccnc4)ccc23)cc1Cl` [Compound 1078]: the inhibition at 0.3 µM ('+' class symbols) is 0 to 25%. As to `CN(C)CCn1ccc2c(NC(=O)CCc3ccccc3)cccc2c1=O` [Compound 1003], the pIC50 is less than 6.00. Besides, the inhibition at 0.3 µM ('+' class symbols) was in the range of 0 to 25%. With `C[C@H]1CC[C@H](C(=O)Nc2cccc3c(=O)n(CCCN4CCCC4=O)ccc23)CC1` [Compound 1494], the inhibition lay in the range of 0 to 25%.

For `COc1ccc(CCC(=O)Nc2cccc3c(=O)n(CC4CCOCC4)ccc23)cc1` [Compound 1095], the inhibition at 0.3 µM ('+' class symbols) was in the range of 0 to 25%. Consider `O=C(Cc1cccc2ccccc12)Nc1cccc2c(=O)n(CCN3CCOCC3)ccc12` [Compound 1203], for which the inhibition at 0.3 µM (symbols + to ++++) lay within 0 to 25%.

As for `Cc1cccc(CC(=O)Nc2cccc3c(=O)n(CC(C)(C)C)ccc23)c1` [Compound 1259], the inhibition at 0.3 µM (symbols + to ++++) was in the range of 0 to 25%. With `Cc1ccc(C(=O)Nc2cccc3c(=O)n(CCN4CCOCC4)ccc23)c(C)c1` [Compound 1193], where the note is “'+' class symbols”, the inhibition at 0.3 µM was in the range of 0 to 25%. Same read-out and setting: in the case of `COCCn1ccc2c(NC(=O)c3ccc(OC)cc3C)cccc2c1=O` [Compound 1060] it was 0 to 25%; in that of `Cc1ccc(C)c(C(=O)Nc2cccc3c(=O)n(CC4CCOCC4)ccc23)c1` [Compound 1088], 0 to 25%; in that of `CC(C)(C)Cn1ccc2c(NC(=O)CCc3ccc4c(c3)OCO4)cccc2c1=O` [Compound 1055], 0 to 25%.

Consider `Cc1ccc(C)c(C(=O)Nc2cccc3c(=O)n(CCCN4CCCC4=O)ccc23)c1` [Compound 1510], for which the inhibition was 0 to 25%. As to `C[C@H]1CC[C@H](C(=O)Nc2cccc3c(=O)n(CC4CCOCC4)ccc23)CC1` [Compound 1395], under setting [1], the inhibition at 0.1 µM fell in the range of 0 to 25%. As to `CCOc1ccc(C(=O)Nc2cccc3c(=O)n(CCOC)ccc23)c(O)c1` [Compound 1059], the inhibition at 0.1 µM under setting [2] fell in the range of 0 to 25%.

On to `COc1ccccc1CCC(=O)Nc1cccc2c(=O)n(CC3CCN(C)CC3)ccc12` [Compound 1467], for which the inhibition fell in the range of 0 to 25%. As to `COc1ccc(C(=O)Nc2cccc3c(=O)n(CCN4CCOCC4)ccc23)cc1C` [Compound 1240], for the setting “symbols + to ++++”, the inhibition at 0.3 µM was in the range of 26 to 50%. With `COc1cc(OC)cc(C(=O)Nc2cccc3c(=O)n(Cc4cccnc4)ccc23)c1` [Compound 1346], the inhibition at 0.1 µM under setting [1] was 51 to 75%. For `Cc1cccc(CCC(=O)Nc2cccc3c(=O)n(Cc4cccnc4)ccc23)c1` [Compound 1369], the inhibition at 0.3 µM (symbols + to ++++) was 0 to 25%. In the case of `CN1CCC(Cn2ccc3c(NC(=O)CCCc4ccccc4)cccc3c2=O)CC1` [Compound 1475], the inhibition fell in the range of 0 to 25%.

On to `O=C(CCc1ccc2c(c1)OCO2)Nc1cccc2c(=O)n(Cc3cccnc3)ccc12` [Compound 1080], for which, for the setting “'+' class symbols”, the inhibition at 0.3 µM fell in the range of 0 to 25%. In the case of `COc1cc(CC(=O)Nc2cccc3c(=O)n(CCCN4CCCC4=O)ccc23)cc(OC)c1` [Compound 1528], the inhibition is 0 to 25%. `CN(C)CCn1ccc2c(NC(=O)CCc3ccc(S(C)(=O)=O)cc3)cccc2c1=O` [Compound 1009] showed a negative-log IC50 (pIC50) of less than 6.00. For the same compound, the inhibition at 0.3 µM ('+' class symbols) was 0 to 25%. On to `COc1cccc(CC(=O)Nc2cccc3c(=O)n(CC(C)(C)C)ccc23)c1` [Compound 1257], for which the inhibition at 0.3 µM (symbols + to ++++) was in the range of 0 to 25%. Still for that read-out and setting: the same measure for `COc1ccccc1CC(=O)Nc1cccc2c(=O)n(Cc3cccnc3)ccc12` [Compound 1351]: 0 to 25%; for `Cc1ccc(Cl)cc1C(=O)Nc1cccc2c(=O)n(CCN3CCOCC3)ccc12` [Compound 1236]: 0 to 25%. As to `O=C(Nc1cccc2c(=O)n(CC3CCOCC3)ccc12)c1cccc2c1OCCO2` [Compound 1117], where the note is “'+' class symbols”, the inhibition at 0.3 µM was 0 to 25%.

`Cc1ccc(CC(=O)Nc2cccc3c(=O)n(CCN(C)C)ccc23)cc1` [Compound 1005] showed a pIC50 of 7.40. Moreover, the inhibition at 0.3 µM ('+' class symbols) was no less than 76%. For `CN(C)CCn1ccc2c(NC(=O)c3cc(Cl)ccc3Cl)cccc2c1=O` [Compound 1139], the inhibition at 0.3 µM ('+' class symbols) fell in the range of 0 to 25%. Regarding `CN(C)CCn1ccc2c(NC(=O)c3ccccc3)cccc2c1=O` [Compound 1006, N-[2-(2-Dimethylamino-ethyl)-1-oxo-1,2-dihydro-isoquinolin-5-yl]-benzamide], the pIC50 was 7.00. Further, the inhibition at 0.3 µM ('+' class symbols) was in the range of 0 to 25%. In the case of `COc1ccc(C(=O)Nc2cccc3c(=O)n(CC(C)(C)C)ccc23)c(C)c1` [Compound 1405], the inhibition is 0 to 25%. Compound `CN(C)CCn1ccc2c(NC(=O)Cc3ccc(C(F)(F)F)cc3C(F)(F)F)cccc2c1=O` [Compound 1618] had a negative logarithm of the IC50 (pIC50) of less than 6.00. For the same compound, the inhibition at 0.3 µM ("+" class symbols) lay in the range of 0 to 25%. On to `O=C(Nc1cccc2c(=O)n(Cc3ccc(OC(F)(F)F)cc3)ccc12)[C@@]12C[C@@H]3C[C@@H](C[C@@H]1C3)C2` [Compound 1594], for which the inhibition is 0 to 25%. In the case of `O=C(Nc1cccc2c(=O)n(CC3CCOCC3)ccc12)c1cc(Cl)ccc1Cl` [Compound 1084], where the note is “'+' class symbols”, the inhibition at 0.3 µM lay within 0 to 25%.

`Cc1ccc(Cl)c(C(=O)Nc2cccc3c(=O)n(CCN(C)C)ccc23)c1` [Compound 1179]: the inhibition at 0.3 µM ('+' class symbols) lay within 0 to 25%. On the same count and under the same terms, in the case of `Cc1ccc(Cl)cc1C(=O)Nc1cccc2c(=O)n(CCN(C)C)ccc12` [Compound 1180] it was 0 to 25%. For the compound `O=C(Nc1cccc2c(=O)n(CCCN3CCCC3=O)ccc12)c1ccccc1Cl` [Compound 1504], the inhibition is 51 to 75%.

Consider `Cc1cccc(CCC(=O)Nc2cccc3c(=O)n(Cc4ccc(OC(F)(F)F)cc4)ccc23)c1` [Compound 1606], for which, where the note is “"*" class symbols, read-out: IL-1β % Inhib. ("*" symbols: at 0.1 μM)”, the inhibition at 0.1 µM lay within 0 to 25%. `CCOc1ccc(C(=O)Nc2cccc3c(=O)n(Cc4ccc(OC(F)(F)F)cc4)ccc23)cc1` [Compound 1568]: the inhibition fell in the range of 0 to 25%. On the same count and under the same terms, in the case of `COc1ccc(CC(=O)Nc2cccc3c(=O)n(Cc4ccc(OC(F)(F)F)cc4)ccc23)cc1` [Compound 1583] it was 26 to 50%; in that of `COc1ccc(C(=O)Nc2cccc3c(=O)n(CCN(C)C)ccc23)cc1Cl` [Compound 1402], 0 to 25%.

For the compound `Cc1cc(C)c(CC(=O)Nc2cccc3c(=O)n(CCN(C)C)ccc23)c(C)c1` [Compound 1036], the inhibition at 0.3 µM ('+' class symbols) lay in the range of 0 to 25%.

With `COc1cccc(CCC(=O)Nc2cccc3c(=O)n(CCN4CCOCC4)ccc23)c1` [Compound 1041], the inhibition at 0.1 µM under setting [2] was in the range of 0 to 25%.

As for `O=C(Cc1ccccc1Cl)Nc1cccc2c(=O)n(CCN3CCOCC3)ccc12` [Compound 1205], the inhibition at 0.3 µM (symbols + to ++++) was 0 to 25%. Take `Cc1ccc(C)c(CC(=O)Nc2cccc3c(=O)n(Cc4cccnc4)ccc23)c1` [Compound 1077]: where the note is “'+' class symbols”, the inhibition at 0.3 µM fell in the range of 0 to 25%. As for `COc1c(C)cc(C(=O)Nc2cccc3c(=O)n(Cc4ccc(OC(F)(F)F)cc4)ccc23)cc1C` [Compound 1590], the inhibition lay within 26 to 50%. As to `Cc1cccc(C(=O)Nc2cccc3c(=O)n(CC(C)(C)C)ccc23)c1` [Compound 1246], the inhibition at 0.1 µM under setting [1] lay within 0 to 25%.

In turn, `CC(=O)OCCn1ccc2c(NC(=O)CC3CCN(C(=O)OC(C)(C)C)CC3)cccc2c1=O` [Compound 1011] gave a pIC50 of less than 6.00. In addition, the inhibition at 0.3 µM ('+' class symbols) was in the range of 0 to 25%.

Consider `O=C(Cc1ccccc1Cl)Nc1cccc2c(=O)n(Cc3ccc(OC(F)(F)F)cc3)ccc12` [Compound 1576], for which the inhibition was in the range of 0 to 25%.

As for `COc1cc(OC)cc(C(=O)Nc2cccc3c(=O)n(CC(C)(C)C)ccc23)c1` [Compound 1245], the inhibition at 0.1 µM under setting [1] was 0 to 25%.

On to `CC(C)(C)Cn1ccc2c(NC(=O)[C@@]34C[C@@H]5C[C@@H](C[C@@H]3C5)C4)cccc2c1=O` [Compound 1271], for which the inhibition at 0.3 µM (symbols + to ++++) lay in the range of 0 to 25%. In the case of `O=C(CCc1ccc2c(c1)OCO2)Nc1cccc2c(=O)n(CC3CCOCC3)ccc12` [Compound 1032], the inhibition at 0.3 µM ('+' class symbols) lay within 0 to 25%. Consider `COc1ccc(CC(=O)Nc2cccc3c(=O)n(CCCN4CCCC4=O)ccc23)cc1` [Compound 1522], for which the inhibition fell in the range of 0 to 25%.

Consider `COCCn1ccc2c(NC(=O)c3ccc(C)cc3C)cccc2c1=O` [Compound 1426], for which the inhibition was 0 to 25%.

For `Cc1ccc(CCC(=O)Nc2cccc3c(=O)n(CCCN4CCCC4=O)ccc23)c(C)c1` [Compound 1546], the inhibition lay within 0 to 25%.

For orientation: pIC50 means the IC50 on a negative log10 scale, so that one unit is a factor of ten.

For the origin of these results see US8546579B2, “Bicycloheteroaryl compounds as P2X7 modulators and uses thereof” (Evotec (US) Inc., priority 2006, dated 2013).
